Experimental data published in BindingDB's records for doi:10.7270/Q2N58JV3 (Burnham Center For Chemical Genomics, 2010).

Biological target: Polyadenylate-binding protein 1 (Homo sapiens, UniProt P11940)
Experiment: PABP inhibition in translation initiation, SAR follow-up (AID 435018)

Sequence of Polyadenylate-binding protein 1 (P11940 whole entry): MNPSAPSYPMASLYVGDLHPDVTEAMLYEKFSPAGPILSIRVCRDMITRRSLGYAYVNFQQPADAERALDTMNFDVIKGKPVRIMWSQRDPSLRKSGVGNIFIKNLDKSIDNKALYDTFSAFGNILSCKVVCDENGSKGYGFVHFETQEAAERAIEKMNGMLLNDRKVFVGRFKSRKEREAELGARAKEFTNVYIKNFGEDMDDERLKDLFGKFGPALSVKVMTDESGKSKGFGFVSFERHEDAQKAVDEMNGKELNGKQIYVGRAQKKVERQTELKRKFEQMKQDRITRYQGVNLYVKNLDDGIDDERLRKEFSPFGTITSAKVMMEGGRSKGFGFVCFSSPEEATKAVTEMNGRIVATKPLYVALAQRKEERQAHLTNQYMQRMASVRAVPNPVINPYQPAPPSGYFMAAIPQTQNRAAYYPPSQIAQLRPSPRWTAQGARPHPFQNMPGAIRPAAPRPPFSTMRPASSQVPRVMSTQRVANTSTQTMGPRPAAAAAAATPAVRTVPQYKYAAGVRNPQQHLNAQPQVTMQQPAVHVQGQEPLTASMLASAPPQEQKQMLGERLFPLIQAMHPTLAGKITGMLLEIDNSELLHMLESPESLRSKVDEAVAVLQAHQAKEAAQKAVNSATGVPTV

Q: How did the IC50 turn out when `COc1cc([CH+][N-]NC(=O)c2ccc(O)cc2)ccc1OCC(=O)Nc1cccc([N+](=O)[O-])c1` was run?
A: The IC50 was over 100 µM.
